Each structure is given as a SMILES string.

The term inhibition denotes how much of the control response was suppressed.

One experiment addresses T1, Human SGLT1 (Homo sapiens, UniProt P13866).
T1 construct: pCMV6 vector containing the full length human SGLT1 gene
T1 sequence (P13866 1-664): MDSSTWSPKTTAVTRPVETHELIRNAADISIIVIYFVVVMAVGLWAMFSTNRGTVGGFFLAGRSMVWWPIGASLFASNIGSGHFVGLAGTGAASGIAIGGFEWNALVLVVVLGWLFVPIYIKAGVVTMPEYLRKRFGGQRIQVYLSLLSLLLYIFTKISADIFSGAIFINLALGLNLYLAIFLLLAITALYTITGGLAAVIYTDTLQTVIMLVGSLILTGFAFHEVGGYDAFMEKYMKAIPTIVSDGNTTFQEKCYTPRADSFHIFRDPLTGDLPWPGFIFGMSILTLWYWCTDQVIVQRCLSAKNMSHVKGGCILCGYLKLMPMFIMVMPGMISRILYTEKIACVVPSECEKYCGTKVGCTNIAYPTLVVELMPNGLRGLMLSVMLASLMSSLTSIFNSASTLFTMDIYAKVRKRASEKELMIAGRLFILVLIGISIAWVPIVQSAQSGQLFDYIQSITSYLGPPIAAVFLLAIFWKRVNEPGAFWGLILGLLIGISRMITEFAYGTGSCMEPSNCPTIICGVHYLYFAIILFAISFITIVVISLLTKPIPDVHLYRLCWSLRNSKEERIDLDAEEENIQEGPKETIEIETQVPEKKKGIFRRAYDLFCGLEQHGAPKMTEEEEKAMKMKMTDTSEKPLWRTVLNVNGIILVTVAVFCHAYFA
As to the kind of experiment: Cell-based assay for inhibition of uptake of 14C-methyl-α-D-glucopyranoside (14C-AMG) in CHO-K1 cells stably expressing human SGLT1. Conditions: compound at 100 μM, 14C-AMG uptake, 1 hour at 37° C. The source says:
(§1) 1. Preparation of Human SGLT1 and Human SGLT2 Expression Vectors:
• Human SGLT1 (Genbank M24847) cDNA was cloned from a pCMV6 vector containing the full length human SGLT1 gene (Origene NM 000343, Cat. #: RC221312) and Human SGLT2 (Genbank M95549) cDNA was cloned from a pCMV6 vector containing the full length human SGLT2 gene (Origene NM_003041, Cat. #: RC224822). The full cDNAs were subcloned independently into mammalian cell expression plasmid pSPI1 and sequenced to verify the integrity of the construct. 2. Preparation of CHO-K1 Cells Stably Expressing Human SGLT1 and Human SGLT2: • Transfection of CHO-K^1 cells was performed using 2.5 ug of pSPI1-SGLT1 or pSPI1-SGLT2 plasmid with about 6 ul of Lipofectamin 2000 (Invitrogen, Cat. #: 11668-019) in about 1.5×10^5 CHO-K1 cells using 12-well cell culture plate (Becton Dickinson, Cat. #: 353003) in the presence of DMEM medium (Dulbecco's Modified Eagle Medium) (Gibco, Cat. #: 11885-092) containing 10% FBS (Sigma, Cat. #: F1051-500mL). […] Sodium-dependent D-glucose transport was determined by measuring the uptake of 14C-methyl-α-D-glucopyranoside (14C-AMG) with a specific activity of 250-350mCi (9.25-13.0 GBq)/mmol (PerkinElmer, Cat. #: NEC 659250UC). […] Scintillation cocktail (1004) was added and the 14C-AMG radioisotope counted in a MicroBeta Trilux (PerkinElmer).

For the next experiment, the target named is T2, Human SGLT2 (Homo sapiens, UniProt P31639).
T2 construct: pCMV6 vector containing the full length human SGLT2 gene
T2 sequence (P31639 1-672): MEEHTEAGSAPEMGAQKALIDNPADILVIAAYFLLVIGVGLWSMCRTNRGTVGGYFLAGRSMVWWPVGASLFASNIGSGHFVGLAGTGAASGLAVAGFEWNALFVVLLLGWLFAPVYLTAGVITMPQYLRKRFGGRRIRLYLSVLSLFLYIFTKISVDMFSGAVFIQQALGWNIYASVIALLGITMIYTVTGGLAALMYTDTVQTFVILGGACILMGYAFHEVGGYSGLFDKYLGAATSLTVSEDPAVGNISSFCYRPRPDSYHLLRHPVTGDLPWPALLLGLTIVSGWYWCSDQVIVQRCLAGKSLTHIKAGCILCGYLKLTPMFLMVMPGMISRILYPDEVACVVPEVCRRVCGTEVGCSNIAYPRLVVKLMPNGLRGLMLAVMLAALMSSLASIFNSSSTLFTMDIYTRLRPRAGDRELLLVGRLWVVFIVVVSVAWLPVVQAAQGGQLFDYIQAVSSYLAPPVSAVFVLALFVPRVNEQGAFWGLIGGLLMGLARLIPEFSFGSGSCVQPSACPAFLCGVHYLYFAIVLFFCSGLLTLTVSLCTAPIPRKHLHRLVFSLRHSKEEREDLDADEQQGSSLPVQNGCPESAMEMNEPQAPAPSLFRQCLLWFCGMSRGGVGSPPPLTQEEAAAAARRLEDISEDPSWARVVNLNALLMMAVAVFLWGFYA
As to the kind of experiment: Cell-based assay for inhibition of uptake of 14C-methyl-α-D-glucopyranoside (14C-AMG) in CHO-K1 cells stably expressing human SGLT2. Conditions: 14C-AMG uptake, 1 hour at 37° C.; for inhibition at 10 µM: compound at 10 μM; for inhibition at 100 µM: compound at 100 μM.
Description: The compounds of the invention have been tested for their ability to inhibit Human Sodium Glucose Co-Transporter 2 (Human SGLT2) according to the following protocol:
as §1
• Human SGLT1 (Genbank M24847) cDNA was cloned from a pCMV6 vector containing the full length human SGLT1 gene (Origene NM 000343, Cat. #: RC221312) and Human SGLT2 (Genbank M95549) cDNA was cloned from a pCMV6 vector containing the full length human SGLT2 gene (Origene NM_003041, Cat. #: RC224822). The full cDNAs were subcloned independently into mammalian cell expression plasmid pSPI1 and sequenced to verify the integrity of the construct. 2. Preparation of CHO-K1 Cells Stably Expressing Human SGLT1 and Human SGLT2: • Transfection of CHO-K^1 cells was performed using 2.5 ug of pSPI1-SGLT1 or pSPI1-SGLT2 plasmid with about 6 ul of Lipofectamin 2000 (Invitrogen, Cat. #: 11668-019) in about 1.5×10^5 CHO-K1 cells using 12-well cell culture plate (Becton Dickinson, Cat. #: 353003) in the presence of DMEM medium (Dulbecco's Modified Eagle Medium) (Gibco, Cat. #: 11885-092) containing 10% FBS (Sigma, Cat. #: F1051-500mL). Transfectants were then selected in the presence of the antibiotic G418 (GIBCO, Cat. #: 11811-031) at final concentration of 750 ug/ml. Individual clones for both SGLT1 and SGLT2 were then characterized using the functional cell-based assay described below. 3. Cell-Based Assay for Inhibition of Uptake of methyl-α-D-glucopyranoside by Human SGLT1 and Human SGLT2: • Selected cell lines stably expressing human SGLT1 or human SGLT2 were then used for functional analysis of sodium dependent glucose uptake. Sodium-dependent D-glucose transport was determined by measuring the uptake of 14C-methyl-α-D-glucopyranoside (14C-AMG) with a specific activity of 250-350mCi (9.25-13.0 GBq)/mmol (PerkinElmer, Cat. #: NEC 659250UC). The assay buffer used to assess sodium-dependent D-glucose transport was Krebs-Ringer-Henseleit (KRH) solution containing 4.7 mM KCl, 1.2 mM MgCl2, 2.2 mM CaCl2, 10 mM Hepes pH 7.4 with Tris (Sigma). For sodium (Na^+) conditions the Assay Buffer containing 120 mM NaCl (Na^+) was used to assess sodium-dependent D-glucose transport (KRH-Na^+). For sodium free conditions, KRH solution containing 120 mM N-methyl-glucamine (NMG) instead of NaCl (Na^+) was used to assess sodium-independent D-glucose transport (KRH-NMG). All buffer chemicals were purchased from Sigma. • In brief, the cells were plated at a density of 40,000 cells per well in a 96-well plate in DMEM media and allowed to grow for 24 hours. Cells were subsequently washed twice (2×100 μL) with KRH buffer cells containing NMG. […] Scintillation cocktail (1004) was added and the 14C-AMG radioisotope counted in a MicroBeta Trilux (PerkinElmer).

On Human SGLT1, `CCc1ccc(Cc2ccccc2C(F)(F)[C@@H]2O[C@H](CO)[C@@H](O)[C@H](O)[C@H]2O)cc1` [Compound 104] gave an inhibition at 100 µM of 48%. Also, at Human SGLT2, at 10 µM the inhibition was 40% and the inhibition at 100 µM worked out at 56%.

With `OC[C@H]1O[C@@H](C(F)(F)c2ccccc2)[C@H](O)[C@@H](O)[C@@H]1O` [Compound 100], on Human SGLT1, testing at 100 µM gave an inhibition of 46%. On Human SGLT2, this molecule gave an inhibition at 10 µM of 30% and an inhibition at 100 µM of 79%.

The record behind these values is US8486897B2, “C-aryl glycoside compounds for the treatment of diabetes and obesity” (TFCHEM, priority 2008, dated 2013).
